Source: patent US20180327367A1, “MACROCYCLIC BROAD SPECTRUM ANTIBIOTICS” (priority 2015, published 2018)
In brackets after ≈: the same amount, converted by molar mass. Read-outs that look alike come from different tables or passages of the source.

How the values were obtained:
Assay type in all cases: cell-based
[1] = tested on: Methicillin Resistant Staphylococcus aureus strain USA 300, NRS384; assay: Minimum inhibitory concentration, broth micro-dilution (CLSI), S. aureus; conditions: for MIC: Staphylococcus aureus, MRSA / NRS 384 / USA300, 22 h
Protocol: (§1) In vitro antimicrobial activity of each compound was determined by measuring minimal inhibitor concentrations (MICs) using the broth micro-dilution technique as approved by the Clinical and Laboratory Standards Institute (CLSI) (Methods for Dilution Antimicrobial Susceptibility Tests for Bacteria that Grow Aerobically; Approved Standard—Eighth Edition. CLSI document M07-A8. Wayne, Pa.: Clinical and Laboratory Standards; 2009). Antibacterial activity was measure against three strains of bacteria: a Methicillin Resistant Staphylococcus aureus strain USA 300, NRS384 (S. aureus); a strain of Escherichia coli MC4100 harboring the IMP4213 (E. coli IMP), which results in increased outer-membrane permeability (B Martin and Silhavy T. Imp/OstA is required for cell envelope biogenesis in Escherichia coli. (2002) Molecular Microbiology, 45(5), 1289-1302), and Escherichia coli ATCC 25922 (E. coli), a clinically relevant Gram-negative strain. Cells were inoculated onto plates of Trypyticase Soy Agar or Luria Agar respectively and grown at 35° C. for 20 hours. Inocula suspensions were prepared by scraping cells into 1 mL of testing media (cation adjusted Mueller Hinton Broth supplemented with 0.002% v/v Tween-80) and diluting to a final OD600 nm of 0.01.
(§2) Test compounds were prepared in DMSO at a concentration of 10 mg/mL. […] In protocol 2, the compound stocks were diluted into testing media at a concentration of 4 μg/mL and serial 2-fold dilutions were made in the same media, in 96-well U bottom microtiter dishes, for a total of 10 compound concentrations. In protocol 3, compound stocks were diluted into testing media at a concentration of 0.5 μg/mL, with serial 2-fold dilutions conducted as described above. […] Inocula suspensions were added to the 2-fold serial dilutions of test compounds to a final density of OD OD600 nm of 0.0005 and incubated at 35° C. for 22 hours.

[2] = tested on: Escherichia coli MC4100 harboring the IMP4213 (E. coli IMP); assay: microbe, parasite or virus in culture; conditions: Escherichia coli, 22 h
Protocol: as §1, §2

[3] = tested on: Escherichia coli ATCC 25922; assay: Minimum inhibitory concentration, broth micro-dilution (CLSI), E. coli; conditions: for MIC: Escherichia coli, ATCC25922, 22 h
Protocol: Cells were inoculated onto plates of Trypyticase Soy Agar or Luria Agar respectively and grown at 35° C. for 20 hours. Inocula suspensions were prepared by scraping cells into 1 mL of testing media (cation adjusted Mueller Hinton Broth supplemented with 0.002% v/v Tween-80) and diluting to a final OD600 nm of 0.01.
as §2

[4] = MRSA USA 300 NRS384, 35° C., 22 hours, read-out: MIC (μg/mL) S. aureus
[5] = read-out: MIC (μg/mL) E. coli IMP, E. coli MC4100 IMP4213, increased outer-membrane permeability, 35° C., 22 hours
[6] = E. coli ATCC 25922, 35° C., 22 hours, read-out: MIC (μg/mL) E. coli
[7] = read-out: MIC (μg/mL) S. aureus, MRSA USA 300 NRS384, 35° C., 22 hours
[8] = read-out: MIC (μg/mL) E. coli, E. coli ATCC 25922, 35° C., 22 hours

Compound	MIC [1, 4]	MIC [2, 5]	MIC [3, 6]	also measured
CCc1ccc(-c2ccc(C(=O)N[C@@H](CCCN)C(=O)N(C)[C@@H]3C(=O)N[C@@H](C)C(=O)N[C@H](C(=O)NCC#N)Cc4ccc(OCCN)c(c4)-c4cc3ccc4OCCN)c(C)c2)cc1 [Compound 152]	0.031 µg/mL (≈ 0.0355 µM)	0.014 µg/mL (≈ 0.016 µM)	0.63 µg/mL (≈ 0.721 µM)	–
CCCCCCc1ccc(C(=O)N[C@@H](CCN)CC(=O)N(C)[C@@H]2C(=O)N[C@@H](C)C(=O)N[C@H](C(=O)NCC#N)Cc3ccc(OCCN)c(c3)-c3cc2ccc3OCCN)c(C)c1 [Compound 513]	0.19 µg/mL (≈ 0.222 µM)	0.13 µg/mL (≈ 0.152 µM)	16 µg/mL (≈ 18.7 µM)	–
CCCCCCCc1ccc(C(=O)N(C)[C@@H](CCN)C(=O)N(C)[C@@H]2C(=O)N[C@@H](C)C(=O)N[C@H](C(=O)NCC#N)Cc3ccc(OCCN)c(c3)-c3cc2ccc3OCCN)cc1 [Compound 396]	–	–	–	MIC ([1]; read-out: MIC (μg/mL) S. aureus): 0.094 µg/mL (≈ 0.11 µM); MIC ([2]; read-out: MIC (μg/mL) E. coli IMP): 0.094 µg/mL (≈ 0.11 µM); MIC ([3]; read-out: MIC (μg/mL) E. coli): 16 µg/mL (≈ 18.7 µM)
C[C@@H]1NC(=O)[C@@H](N(C)C(=O)[C@H](CCO)NC(=O)c2ccc(-c3ccc(Cl)cc3)cc2)c2ccc(OCCN)c(c2)-c2cc(ccc2OCCN)C[C@@H](C(=O)NCC#N)NC1=O [Compound 259]	0.5 µg/mL (≈ 0.586 µM)	0.25 µg/mL (≈ 0.293 µM)	64 µg/mL (≈ 75 µM)	–
CCCCc1ccc(-c2ncc(C(=O)N[C@@H](CCN)C(=O)N(C)[C@@H]3C(=O)N[C@@H](C)C(=O)N[C@H](C(=O)NCC#N)Cc4ccc(OCCN)c(c4)-c4cc3ccc4OCCN)c(C)n2)cc1 [Compound 156]	0.016 µg/mL (≈ 0.018 µM)	0.0044 µg/mL (≈ 0.00494 µM)	0.063 µg/mL (≈ 0.0708 µM)	–
CCCCCCCc1ccc(C(=O)NC(CCNC)C(=O)N(C)[C@@H]2C(=O)N[C@@H](C)C(=O)N[C@H](C(=O)NCC#N)Cc3ccc(OCCN)c(c3)-c3cc2ccc3OCCN)c(C)c1 (single isomer, unassigned) [Compound 490-P1]	–	0.068 µg/mL (≈ 0.0783 µM)	–	MIC (μg/mL) S. aureus ([1]; MRSA USA 300 NRS384, 35° C., 22 hours): 0.073 µg/mL (≈ 0.0841 µM); MIC (μg/mL) E. coli ([3]; E. coli ATCC 25922, 35° C., 22 hours): 0.75 µg/mL (≈ 0.864 µM)
CCCCCCCCCC(=O)N[C@H](CO)C(=O)N[C@@H](CCN)C(=O)N(C)[C@@H]1C(=O)N[C@@H](C)C(=O)N[C@H](C(=O)NCC#N)Cc2ccc(OCCN)c(c2)-c2cc1ccc2OCCN [Compound 359]	–	0.13 µg/mL (≈ 0.148 µM)	–	MIC [1, 7]: 0.063 µg/mL (≈ 0.0717 µM); MIC [3, 8]: 16 µg/mL (≈ 18.2 µM)
C[C@@H]1NC(=O)[C@@H](N(C)C(=O)[C@H](CCCCN)NC(=O)c2ccc(-c3ccc(Cl)cc3)cc2)c2ccc(OCC(O)CN)c(c2)-c2cc(ccc2OCC(O)CN)C[C@@H](C(=O)NCC#N)NC1=O (mixture of isomers) [Compound 515]	0.094 µg/mL	0.063 µg/mL	4 µg/mL	–
C[C@@H]1NC(=O)[C@@H](N(C)C(=O)[C@H](CCCCN)NC(=O)c2ccc(-c3ccc(Cl)cc3)cc2)c2ccc(O)c(c2)-c2cc(ccc2O)C[C@@H](C(=O)NCC#N)NC1=O [Compound 416]	–	2 µg/mL (≈ 2.52 µM)	–	MIC [1, 7]: 0.5 µg/mL (≈ 0.629 µM); MIC [3, 8]: > 64 µg/mL
CCCCCCCCc1ccc2c(c1)C(C)N([C@@H](CCN)C(=O)N(C)[C@@H]1C(=O)N[C@@H](C)C(=O)N[C@H](C(=O)NCC#N)Cc3ccc(OCCN)c(c3)-c3cc1ccc3OCCN)C2=O (stereo partly drawn) [Compound 489]	0.19 µg/mL (≈ 0.216 µM)	0.25 µg/mL (≈ 0.284 µM)	8 µg/mL (≈ 9.09 µM)	–
CCCCCCCn1cc(C(=O)N[C@@H](CCN)C(=O)N(C)[C@@H]2C(=O)N[C@@H](C)C(=O)N[C@H](C(=O)NCC#N)Cc3ccc(OCCN)c(c3)-c3cc2ccc3OCCN)c(C)nc1=O [Compound 301]	4 µg/mL (≈ 4.59 µM)	4 µg/mL (≈ 4.59 µM)	> 64 µg/mL	–
CCCCCCCc1cc(C)c(C(=O)N[C@@H](CCN)C(=O)N(C)[C@@H]2C(=O)N[C@@H](C)C(=O)N[C@H](C(=O)NCC#N)Cc3ccc(OCCN)c(c3)-c3cc2ccc3OCCN)c(C)c1 [Compound 189]	0.031 µg/mL (≈ 0.0357 µM)	0.023 µg/mL (≈ 0.0265 µM)	0.19 µg/mL (≈ 0.219 µM)	–
CCCCCCc1ccc(C(=O)N2CCC(N)C[C@@H]2C(=O)N(C)[C@@H]2C(=O)N[C@@H](C)C(=O)N[C@H](C(=O)NCC#N)Cc3ccc(OCCN)c(c3)-c3cc2ccc3OCCN)c(C)c1 (single isomer, unassigned) [Compound 526-1]	0.19 µg/mL (≈ 0.219 µM)	0.13 µg/mL (≈ 0.15 µM)	16 µg/mL (≈ 18.5 µM)	–
